T/C data for 17 compounds are collected here from PubChem BioAssay AID228 (DTP/NCI, 2004).

“And” between values parts separate entries of the source, which are not always exact repeats. Equal values may be shown once. Records with an inconclusive call do not appear.

The experiment relates to BDF1 mice, Friend leukemia sc, tumor weight T/C. Briefly: NCI In Vivo Anticancer Drug Screen. Data for tumor model Friend Virus Leukemia (Solid) (subcutaneous) in B6D2F1 (BDF1) mice. Conditions: endpoint: mean tumor weight, schedule: Q01DX011 (ip), higher = larger tumour. The protocol: The antitumor activity of compounds was measured in mice bearing transplantable tumors. Survival or tumor size were measured and the results are expressed as the measurement made in the treated group (T) divided by the measurement made in the vehicle treated control group (C). The tumor model used in this assay is Friend Virus Leukemia (Solid) (subcutaneous) in B6D2F1 (BDF1) mice

The mark [1] stands for this setting: dose: 15.0 mg/kg/injection, vehicle: carboxymethylcellulose (CMC).
[2] abbreviates: dose: 30.0 mg/kg/injection, vehicle: carboxymethylcellulose (CMC).
Where [3] appears, read: dose: 60.0 mg/kg/injection, vehicle: carboxymethylcellulose (CMC).
[4] abbreviates: dose: 1.0 mg/kg/injection, vehicle: carboxymethylcellulose (CMC).
Setting [5] is: dose: 1.5 mg/kg/injection, vehicle: carboxymethylcellulose (CMC).
The mark [6] stands for this setting: dose: 0.75 mg/kg/injection, vehicle: carboxymethylcellulose (CMC).
Setting [7] is: dose: 3.0 mg/kg/injection, vehicle: carboxymethylcellulose (CMC).
Where [8] appears, read: dose: 125.0 mg/kg/injection, vehicle: carboxymethylcellulose (CMC).
Setting [9] is: dose: 75.0 mg/kg/injection, vehicle: carboxymethylcellulose (CMC).
[10] abbreviates: dose: 37.5 mg/kg/injection, vehicle: carboxymethylcellulose (CMC).
[11] abbreviates: dose: 150.0 mg/kg/injection, vehicle: carboxymethylcellulose (CMC).
[12] abbreviates: dose: 300.0 mg/kg/injection, vehicle: carboxymethylcellulose (CMC).

With `O=NN(CCCl)C(=O)NCCCl`, the T/C (dose: 0.81 mg/kg/injection, vehicle: saline) is 112 % of control; the T/C (dose: 1.62 mg/kg/injection, vehicle: saline) is 102 % of control; the T/C (dose: 3.25 mg/kg/injection, vehicle: saline) is 54 % of control; the T/C (dose: 6.5 mg/kg/injection, vehicle: saline) is 39 % of control; the T/C (dose: 10.0 mg/kg/injection, vehicle: saline) was 88 % of control; the T/C (dose: 15.0 mg/kg/injection, vehicle: saline) is 51 % of control. The T/C (dose: 25.0 mg/kg/injection, vehicle: saline) was 4 % of control.
As for `O=C1N(Cl)C(=O)C(c2ccc(Cl)cc2)(c2ccc(Cl)cc2)N1Cl`, the T/C by setting is: under setting [1], 56 % of control; under setting [2], 42 % of control; under setting [3], 33 % of control; (dose: 120.0 mg/kg/injection, vehicle: carboxymethylcellulose (CMC)) 47 % of control.
With `CSc1ncnc2c1ncn2C1CCCO1` (stereo unspecified), the T/C (dose: 12.0 mg/kg/injection, vehicle: carboxymethylcellulose (CMC)) was 96 % of control; the T/C (dose: 25.0 mg/kg/injection, vehicle: carboxymethylcellulose (CMC)) was 45 % of control; the T/C (dose: 100.0 mg/kg/injection, vehicle: carboxymethylcellulose (CMC)) was 3 % of control and 9 % of control.
As to `Nc1nc(=S)c2ncn(C3OC(CO)C(O)C3O)c2[nH]1` (stereo unspecified), the T/C was 74 % of control (dose: 0.18 mg/kg/injection, vehicle: carboxymethylcellulose (CMC)); 63 % of control (dose: 0.37 mg/kg/injection, vehicle: carboxymethylcellulose (CMC)); 53 % of control (dose: 0.6 mg/kg/injection, vehicle: carboxymethylcellulose (CMC)); 36 % of control under setting [4]; 31 % of control and 48 % of control under setting [5].
On to `Cc1nc(N)nc(N)c1-c1ccc(Cl)c(Cl)c1`, for which the T/C runs as follows: under setting [6], 96 % of control; under setting [5], 105 % of control; under setting [7], 59 % of control.
Regarding `Cc1cc2nc3c(=O)[nH]c(=O)nc-3n(CCOC(=O)CCC(=O)O)c2cc1C`, the T/C runs as follows: (dose: 42.0 mg/kg/injection, vehicle: carboxymethylcellulose (CMC)) 96 % of control; (dose: 84.0 mg/kg/injection, vehicle: carboxymethylcellulose (CMC)) 108 % of control; (dose: 168.0 mg/kg/injection, vehicle: carboxymethylcellulose (CMC)) 83 % of control; (dose: 236.0 mg/kg/injection, vehicle: carboxymethylcellulose (CMC)) 59 % of control.
`NCCCC(NC(=O)CCCCCCCCN=C(N)N)C(O)CCCCCCCCN=C(N)N` (stereo unspecified): the T/C (dose: 0.38 mg/kg/injection, vehicle: carboxymethylcellulose (CMC)) is 102 % of control; the T/C under setting [6] was 82 % of control; the T/C under setting [5] is 92 % of control; the T/C under setting [7] was 96 % of control; the T/C (dose: 6.0 mg/kg/injection, vehicle: carboxymethylcellulose (CMC)) was 79 % of control.
On to `CC(Cl)CN(Cc1cc(O)c(CN(CC(C)Cl)CC(C)Cl)cc1O)CC(C)Cl` (stereo unspecified), for which the T/C runs as follows: (dose: 62.5 mg/kg/injection, vehicle: carboxymethylcellulose (CMC)) 66 % of control; under setting [8], 44 % of control.
Turning to `N#C[C@@H]1C2C=CC(CC2)[C@H]1C#N`, the T/C is 97 % of control (dose: 0.5 mg/kg/injection, vehicle: carboxymethylcellulose (CMC)); 71 % of control under setting [4]; 83 % of control (dose: 2.0 mg/kg/injection, vehicle: carboxymethylcellulose (CMC)).
For the compound `OCC1OC(n2cnc3c(Cl)ncnc32)C(O)C1O` (stereo unspecified), the T/C was 93 % of control (dose: 62.0 mg/kg/injection, vehicle: carboxymethylcellulose (CMC)); 105 % of control under setting [8]; 109 % of control (dose: 250.0 mg/kg/injection, vehicle: carboxymethylcellulose (CMC)); 115 % of control (dose: 500.0 mg/kg/injection, vehicle: carboxymethylcellulose (CMC)).
`Brc1ncnc2nc[nH]c12`: the T/C by setting is: under setting [9], 51 % of control; (dose: 113.0 mg/kg/injection, vehicle: carboxymethylcellulose (CMC)) 82 % of control; (dose: 171.0 mg/kg/injection, vehicle: carboxymethylcellulose (CMC)) 43 % of control; (dose: 256.0 mg/kg/injection, vehicle: carboxymethylcellulose (CMC)) 34 % of control.
For `Cn1c(=O)c2[nH]c(CCCc3nc4c([nH]3)c(=O)n(C)c(=O)n4C)nc2n(C)c1=O`, the T/C was 101 % of control (dose: 20.0 mg/kg/injection, vehicle: carboxymethylcellulose (CMC)); 94 % of control (dose: 40.0 mg/kg/injection, vehicle: carboxymethylcellulose (CMC)); 44 % of control (dose: 80.0 mg/kg/injection, vehicle: carboxymethylcellulose (CMC)).
As for `O=[N+]([O-])c1ccc(O)c([N+](=O)[O-])c1`, the T/C is, setting by setting: (dose: 3.87 mg/kg/injection, vehicle: carboxymethylcellulose (CMC)) 101 % of control; (dose: 6.75 mg/kg/injection, vehicle: carboxymethylcellulose (CMC)) 102 % of control; (dose: 13.5 mg/kg/injection, vehicle: carboxymethylcellulose (CMC)) 103 % of control; (dose: 27.0 mg/kg/injection, vehicle: carboxymethylcellulose (CMC)) 123 % of control.
Turning to `O=C(C[N+]12CN3CN(CN(C3)C1)C2)c1ccc(Cl)cc1`, the T/C runs as follows: under setting [10], 101 % of control; under setting [11], 117 % of control; under setting [12], 93 % of control.
Turning to `O=C(O)Cc1ccc(C2CCCCC2)cc1`, the T/C under setting [10] is 106 % of control, the T/C under setting [9] is 114 % of control, the T/C under setting [11] is 106 % of control and the T/C under setting [12] was 94 % of control.
In the case of `Cc1ccc(N2CCN(CCCN3CCN(c4ccc(Cl)cc4)CC3)CC2)cc1`, the T/C (dose: 7.5 mg/kg/injection, vehicle: carboxymethylcellulose (CMC)) is 80 % of control; the T/C under setting [1] is 61 % of control; the T/C under setting [2] was 55 % of control and 50 % of control; the T/C under setting [3] is 49 % of control.
For `Cc1ncc(CO)c(C)c1O`, the T/C reads like this: (dose: 22.75 mg/kg/injection, vehicle: carboxymethylcellulose (CMC)) 54 % of control; (dose: 45.5 mg/kg/injection, vehicle: carboxymethylcellulose (CMC)) 111 % of control; (dose: 121.0 mg/kg/injection, vehicle: carboxymethylcellulose (CMC)) 84 % of control and 98 % of control; (dose: 126.0 mg/kg/injection, vehicle: carboxymethylcellulose (CMC)) 112 % of control.
